According to patent US10696707B2, “Polyene macrolide derivative” (Shionogi & Co., Ltd., priority 2014, dated 2020):
Converted amounts (≈) assume the structure as drawn. Read-outs that look alike come from different tables or passages of the source.

Tests used:
Assay type in all cases: cell-based
C. albicans ATCC90028 = test: Antifungal activity test, MIC by broth microdilution (CLSI M27-A3); settings: C. albicans ATCC90028, broth microdilution, 35° C., 24-48 hours, 100% inhibition
Summary of the method: (§1)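 CLSI broth microdilution in RPMI 1640 with 2% glucose, 0.165 mol/L MOPS, pH 7.0; two-fold DMSO dilutions. MIC = lowest concentration giving 100% inhibition versus growth control.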

A. flavus ATCC204304 = test: Antifungal activity test, MIC by broth microdilution (CLSI M38-A2); settings: A. flavus ATCC204304, broth microdilution, 35° C., 24-48 hours, 100% inhibition
Summary of the method: as §1

A. fumigatus ATCC204305 = test: as above; settings: A. fumigatus ATCC204305, broth microdilution, 35° C., 24-48 hours, 100% inhibition
Summary of the method: as §1

[1] = test system: red blood cells (5% RBC suspension); test: Test Example 2-2: in vitro hemolytic activity test (upper limit 200 μmol/L); settings: Test Example 2-2, hemolysis method 200 (upper concentration 200 μmol/L), 5% RBC suspension, 37° C., one hour, read-out: hemolysis IC50
Method: Nephrotoxic potentials of the compounds of the present invention whose X is —N(R^F)—CO—X^1 and X^1 is the group represented by formula (III) and T is —N(R^a5)— were investigated by in vitro hemolytic activity test under the condition that the upper limit was 200 μmol/L as the required concentration to 50% of hemolysis (IC50).
Defibrinated sterile blood was centrifuged at 700×g for 3 minutes and, and the supernatant was removed for 100% of red blood cells. After the cleaning with physiological saline, the washed blood cells was suspended in the medium (Earle's balanced salt sodium, bicarbonate, 0.1 g/L L-glutamine without phenol red), and was diluted by 5% (5% RBC suspension).
The washed blood was diluted by 5% in water for injection (solution of complete hemolysis), and was used as the indication of optical density for complete hemolysis.
The compounds of the present invention solution in DMSO (several and doubling dilutions starting from 10 mmol/L), DMSO as the negative control, and Amphotericin B as the positive control were used, and each 5 μL of these was added in to a well of V-form 96 well type microplate. Finally, the maximum concentration of the compounds of the present invention solution in DMSO was 200 μmol/L by adding 245 μL of the medium or 5% RBC suspension into the well.
Two hundred fifty μL of the solution of complete hemolysis was added into another well and the microplate was incubated at 37° C. in 5% of CO2 concentration for an hour.
After the incubation, each 100 μL of supernatants in wells was collected by centrifugation of the microplate at 300×g for 5 minutes and was located on a well of flat-form 96 well type microplate. An absorbance of each supernatant was measured at wavelength of 540 nm.
Percent hemolysis was calculated by using the followed equation. The required concentration to 50% of hemolysis (IC50) was calculated based on the percent hemolysis. […] Hemolysis (%)=(CR−VM)×100÷(VL−VR) Where:
CR: Absorbance of 5% RBC suspension incubated with the compounds of the present invention solution in DMSO
VM: Absorbance of medium incubated with the compounds of the present invention solution in DMSO
VL: Absorbance of solution of complete hemolysis
VR: Absorbance of 5% RBC suspension incubated with DMSO
The “>200” in the table means above IC50 value exceeded the upper concentration 200 μmol/L.

[2] = Candida albicans, read-out: MIC
[3] = Aspergillus flavus, read-out: MIC
[4] = Aspergillus fumigatus, read-out: MIC

Compound | MIC (C. albicans ATCC90028) [µg/mL] | MIC (A. flavus ATCC204304) [µg/mL] | MIC (A. fumigatus ATCC204305) [µg/mL] | MIC (C. albicans ATCC90028; [2]) [µg/mL] | MIC (A. flavus ATCC204304; [3]) [µg/mL] | MIC (A. fumigatus ATCC204305; [4]) [µg/mL] | IC50 [1] [µM] | IC50 ([1]; Erythrocyte, 1 h) [µM]
C[C@@H]1[C@H](O)[C@@H](C)/C=C/C=C/C=C/C=C/C=C/C=C/C=C/[C@H](O[C@@H]2O[C@H](C)[C@@H](O)[C@H](N)[C@@H]2O)C[C@@H]2O[C@](O)(C[C@@H](O)C[C@@H](O)[C@H](O)CC[C@@H](O)C[C@@H](O)CC(=O)O[C@H]1C)C[C@H](O)[C@H]2NC(=O)NNC(=O)C1(O)CC1 [I-257] | – | – | – | – | – | – | > 200 | –
CNC(=O)NNC(=O)N[C@H]1[C@@H]2C[C@@H](O[C@@H]3O[C@H](C)[C@@H](O)[C@H](N)[C@@H]3O)/C=C/C=C/C=C/C=C/C=C/C=C/C=C/[C@H](C)[C@@H](O)[C@@H](C)[C@H](C)OC(=O)C[C@H](O)C[C@H](O)CC[C@@H](O)[C@H](O)C[C@H](O)C[C@](O)(C[C@@H]1O)O2 [I-228] | – | – | – | – | – | – | > 200 | –
C[C@@H]1[C@H](O)[C@@H](C)/C=C/C=C/C=C/C=C/C=C/C=C/C=C/[C@H](O[C@@H]2O[C@H](C)[C@@H](O)[C@H](N)[C@@H]2O)C[C@@H]2O[C@](O)(C[C@@H](O)C[C@@H](O)[C@H](O)CC[C@@H](O)C[C@@H](O)CC(=O)O[C@H]1C)C[C@H](O)[C@H]2NC(=O)NNC(=O)CO [I-243] | – | – | – | – | – | – | > 200 | –
C[C@@H]1[C@H](O)[C@@H](C)/C=C/C=C/C=C/C=C/C=C/C=C/C=C/[C@H](O[C@@H]2O[C@H](C)[C@@H](O)[C@H](N)[C@@H]2O)C[C@@H]2O[C@](O)(C[C@@H](O)C[C@@H](O)[C@H](O)CC[C@@H](O)C[C@@H](O)CC(=O)O[C@H]1C)C[C@H](O)[C@H]2NC(=O)NNC=O [I-43] | 0.25 (≈ 0.255 µM) | 1 (≈ 1.02 µM) | 1 (≈ 1.02 µM) | – | – | – | > 200 | –

Second part, led by results:

MIC (C. albicans ATCC90028) [µg/mL] | MIC (A. flavus ATCC204304) [µg/mL] | MIC (A. fumigatus ATCC204305) [µg/mL] | MIC (C. albicans ATCC90028; [2]) [µg/mL] | MIC (A. flavus ATCC204304; [3]) [µg/mL] | MIC (A. fumigatus ATCC204305; [4]) [µg/mL] | Compound | IC50 [1] [µM] | IC50 ([1]; Erythrocyte, 1 h) [µM]
0.5 (≈ 0.474 µM) | 0.5 (≈ 0.474 µM) | 1 (≈ 0.948 µM) | – | – | – | C[C@@H]1[C@H](O)[C@@H](C)/C=C/C=C/C=C/C=C/C=C/C=C/C=C/[C@H](O[C@@H]2O[C@H](C)[C@@H](O)[C@H](N)[C@@H]2O)C[C@@H]2O[C@](O)(C[C@@H](O)C[C@@H](O)[C@H](O)CC[C@@H](O)C[C@@H](O)CC(=O)O[C@H]1C)C[C@H](O)[C@H]2NC(=O)NNC(=O)C[C@H](O)CO [I-237] | > 200 | –
0.5 (≈ 0.474 µM) | 0.5 (≈ 0.474 µM) | 1 (≈ 0.948 µM) | – | – | – | C[C@@H]1[C@H](O)[C@@H](C)/C=C/C=C/C=C/C=C/C=C/C=C/C=C/[C@H](O[C@@H]2O[C@H](C)[C@@H](O)[C@H](N)[C@@H]2O)C[C@@H]2O[C@](O)(C[C@@H](O)C[C@@H](O)[C@H](O)CC[C@@H](O)C[C@@H](O)CC(=O)O[C@H]1C)C[C@H](O)[C@H]2NC(=O)NNC(=O)C(CO)CO [I-240] | > 200 | –
– | – | – | 0.25 (≈ 0.251 µM) | 1 (≈ 1 µM) | 1 (≈ 1 µM) | CC(=O)NNC(=O)N[C@H]1[C@@H]2C[C@@H](O[C@@H]3O[C@H](C)[C@@H](O)[C@H](N)[C@@H]3O)/C=C/C=C/C=C/C=C/C=C/C=C/C=C/[C@H](C)[C@@H](O)[C@@H](C)[C@H](C)OC(=O)C[C@H](O)C[C@H](O)CC[C@@H](O)[C@H](O)C[C@H](O)C[C@](O)(C[C@@H]1O)O2 [I-19] | – | > 200
0.5 (≈ 0.475 µM) | 0.5 (≈ 0.475 µM) | 1 (≈ 0.949 µM) | – | – | – | C[C@@H]1[C@H](O)[C@@H](C)/C=C/C=C/C=C/C=C/C=C/C=C/C=C/[C@H](O[C@@H]2O[C@H](C)[C@@H](O)[C@H](N)[C@@H]2O)C[C@@H]2O[C@](O)(C[C@@H](O)C[C@@H](O)[C@H](O)CC[C@@H](O)C[C@@H](O)CC(=O)O[C@H]1C)C[C@H](O)[C@H]2NC(=O)NNC(=O)CCC(=O)O [I-261] | > 200 | –
– | – | – | 0.5 (≈ 0.48 µM) | 0.5 (≈ 0.48 µM) | 1 (≈ 0.96 µM) | C[C@@H]1[C@H](O)[C@@H](C)/C=C/C=C/C=C/C=C/C=C/C=C/C=C/[C@H](O[C@@H]2O[C@H](C)[C@@H](O)[C@H](N)[C@@H]2O)C[C@@H]2O[C@](O)(C[C@@H](O)C[C@@H](O)[C@H](O)CC[C@@H](O)C[C@@H](O)CC(=O)O[C@H]1C)C[C@H](O)[C@H]2NC(=O)NNC[C@@H](O)C(=O)O [I-310] | – | > 200
